Reference: patent publication EP0332332B1, “Hypoglycemic thiazolidinedione derivatives” (PFIZER INC., priority 1988, dated 1989)

Tested on: C57 BL/6J-ob/ob mice
Assay: test for hypoglycemic effect in ob/ob mice
Assay type: in vivo
Conditions: plasma glucose on day 5, ob/ob mice dosed daily for five days, 50 mg/kg in 0.25% w/v methyl cellulose; value given as an example (e.g.)
Text: The present compounds of the formula (I) are readily adapted to clinical use as hypoglycemic or hypocholesterolemic agents. The activity required for this former clinical use is defined by the test for hypoglycemic effect in ob/ob mice by the following procedure:
Five to eight week old C57 BL/6J-ob/ob mice (obtained from Jackson Laboratory, Bar Harbor, Maine) were housed five per cage under standard animal care practices. After a one week acclimation period, the animals were weighed and 25 microliters of blood was collected via an ocular bleed prior to any treatment. The blood sample was immediately diluted 1:5 with saline containing 2.5 mg/ml sodium fluoride and 2% sodium heparin, and held on ice for metabolite analysis. […] The supernatant was analyzed for glucose, for example, by the ABA 200 Bichromatic Analyzer™, using the A-gent™ glucose UV reagent system* (hexokinase method) using 20, 60 and 100 mg/dl standards. Plasma glucose was then calculated by the equation, Plasma glucose (mg/dl) = Sample value x 5 x 1.67 = 8.35 x Sample value [formula] where 5 is the dilution factor and 1.67 is the plasma hematocrit adjustment (assuming the hematocrit is 40%). ™A registered trademark of Abbott Laboratories, Diagnostics Division, 820 Mission Street, So. […]

CC1(COc2ccc(CC3SC(=O)NC3=O)cc2)CCCCC1 (stereo not shown) [positive control, ciglitazone]
glucose levels: ~130 mg/dL
